From the supplement of paper PMC11451515

Tested on: SEM cells
Assay: cell viability relative to DMSO control; higher = less cytotoxic
Details: 48 h
In short: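 Viability is expressed as a percentage of DMSO wells within each plate, and cell-free wells serve as background. Seeding densities in the 1536-well plates (5 μl) were 500 cells/well for NOMO1 or SEM leukemia cells and 1000 cells/well for P12-Ichikawa. Each line was adapted for at least four passages in each medium. Library compounds in DMSO were pin-dosed at 47 μM to 0.79 nM (11 points, threefold), and CellTiter-Glo One luminescence was read after 48 h at 37°C.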

[1] = HPLM + 10% dialyzed FBS, 0.000781 µM
[2] = HPLM + 10% dialyzed FBS, 0.00234 µM
[3] = HPLM + 10% dialyzed FBS, 0.00702 µM
[4] = HPLM + 10% dialyzed FBS, 0.0211 µM
[5] = HPLM + 10% dialyzed FBS, 0.0632 µM
[6] = HPLM + 10% dialyzed FBS, 0.19 µM
[7] = HPLM + 10% dialyzed FBS, 0.569 µM
[8] = HPLM + 10% dialyzed FBS, 1.71 µM
[9] = HPLM + 10% dialyzed FBS, 5.12 µM
[10] = HPLM + 10% dialyzed FBS, 15.4 µM
[11] = HPLM + 10% dialyzed FBS, 46.1 µM
[12] = RPMI 5 mM glucose + 10% FBS, 0.000781 µM
[13] = RPMI 5 mM glucose + 10% FBS, 0.00234 µM
[14] = RPMI 5 mM glucose + 10% FBS, 0.00702 µM
[15] = RPMI 5 mM glucose + 10% FBS, 0.0211 µM
[16] = RPMI 5 mM glucose + 10% FBS, 0.0632 µM
[17] = RPMI 5 mM glucose + 10% FBS, 0.19 µM
[18] = RPMI 5 mM glucose + 10% FBS, 0.569 µM
[19] = RPMI 5 mM glucose + 10% FBS, 1.71 µM
[20] = RPMI 5 mM glucose + 10% FBS, 5.12 µM
[21] = RPMI 5 mM glucose + 10% FBS, 15.4 µM
[22] = RPMI 5 mM glucose + 10% FBS, 46.1 µM
[23] = RPMI 5 mM glucose + 10% dialyzed FBS, 0.000781 µM
[24] = RPMI 5 mM glucose + 10% dialyzed FBS, 0.00234 µM
[25] = RPMI 5 mM glucose + 10% dialyzed FBS, 0.00702 µM
[26] = RPMI 5 mM glucose + 10% dialyzed FBS, 0.0211 µM
[27] = RPMI 5 mM glucose + 10% dialyzed FBS, 0.0632 µM
[28] = RPMI 5 mM glucose + 10% dialyzed FBS, 0.19 µM
[29] = RPMI 5 mM glucose + 10% dialyzed FBS, 0.569 µM
[30] = RPMI 5 mM glucose + 10% dialyzed FBS, 1.71 µM
[31] = RPMI 5 mM glucose + 10% dialyzed FBS, 5.12 µM
[32] = RPMI 5 mM glucose + 10% dialyzed FBS, 15.4 µM
[33] = RPMI 5 mM glucose + 10% dialyzed FBS, 46.1 µM

| Compound | cell viability [1] [%] | cell viability [2] [%] | cell viability [3] [%] | cell viability [4] [%] | cell viability [5] [%] | cell viability [6] [%] | cell viability [7] [%] | cell viability [8] [%] | cell viability [9] [%] | cell viability [10] [%] | cell viability [11] [%] | cell viability [12] [%] | cell viability [13] [%] | cell viability [14] [%] | cell viability [15] [%] | cell viability [16] [%] | cell viability [17] [%] | cell viability [18] [%] | cell viability [19] [%] | cell viability [20] [%] | cell viability [21] [%] | cell viability [22] [%] | cell viability [23] [%] | cell viability [24] [%] | cell viability [25] [%] | cell viability [26] [%] | cell viability [27] [%] | cell viability [28] [%] | cell viability [29] [%] | cell viability [30] [%] | cell viability [31] [%] | cell viability [32] [%] | cell viability [33] [%] |
| --- | --- | --- | --- | --- | --- | --- | --- | --- | --- | --- | --- | --- | --- | --- | --- | --- | --- | --- | --- | --- | --- | --- | --- | --- | --- | --- | --- | --- | --- | --- | --- | --- | --- |
| CCNc1cc(NC2CCC(O)CC2)nc(Nc2ccc3c(ccn3Cc3ccccc3)c2)n1 (stereo unspecified) | 102 | 119 | 129 | 127 | 118 | 137 | 124 | 147 | 123 | 117 | 105 |  |  |  |  |  |  |  |  |  |  |  |  |  |  |  |  |  |  |  |  |  |  |
| C#Cc1cccc(Nc2ncnc3cc(OC)c(OCCCCCCC(=O)NO)cc23)c1 | 118 | 119 | 104 | 110 | 95.9 | 73.4 | 44 | 15.1 | 6.25 | 5.23 | 3.28 | 88.3 | 91.8 | 75.6 | 81.3 | 69.8 | 46.3 | 26.5 | 6.61 | 4.45 | 3.81 | 1.74 | 119 | 123 | 108 | 120 | 117 | 59.2 | 28.8 | 9.73 | 6.06 | 5.12 | 2.79 |
| O=C1NC(=O)/C(=C/c2cccc(C(F)(F)F)c2)S1 | 100 | 93.3 | 96.5 | 108 | 101 | 102 | 100 | 100 | 107 | 89.1 | 66.7 | 99.5 | 100 | 110 | 108 | 112 | 108 | 115 | 104 | 108 | 98.9 | 59.7 | 93.7 | 106 | 106 | 115 | 99.6 | 94.4 | 102 | 108 | 109 | 102 | 62.5 |
| O=C(CCCCCCC(=O)Nc1ccccc1)NO | 77.1 | 112 | 102 | 103 | 124 | 116 | 108 | 108 | 18.8 | 7.11 | 5.17 | 94.2 | 116 | 135 | 123 | 111 | 118 | 125 | 127 | 25 | 6.63 | 5.85 | 62.6 | 100 | 106 | 109 | 114 | 106 | 121 | 103 | 16.4 | 6.03 | 4.79 |
| CN(C)c1ccc2cc(C(=O)N[C@@H](CCCNC(=N)CCl)C(=O)NCc3ccccc3)ccc2c1 | 114 | 115 | 101 | 115 | 117 | 112 | 113 | 121 | 110 | 101 | 11.7 | 113 | 112 | 104 | 111 | 112 | 110 | 120 | 90.9 | 101 | 74.1 | 5.29 | 104 | 105 | 99.7 | 104 | 122 | 108 | 115 | 90 | 106 | 84 | 6.08 |
| COc1ccnc(C[S+]([O-])c2nc3cc(OC(F)F)ccc3[nH]2)c1OC (stereo unspecified) | 110 | 111 | 124 | 123 | 122 | 123 | 133 | 119 | 134 | 128 | 143 |  |  |  |  |  |  |  |  |  |  |  | 111 | 95.9 | 126 | 131 | 125 | 118 | 127 | 144 | 126 | 130 | 137 |
| CC(C)NCC(O)c1ccc(NS(C)(=O)=O)cc1 (stereo unspecified) | 110 | 110 | 93 | 106 | 111 | 124 | 108 | 105 | 111 | 116 | 108 | 109 | 104 | 117 | 106 | 109 | 101 | 96.2 | 87.1 | 92.7 | 97.2 | 107 | 107 | 99.1 | 97.4 | 104 | 111 | 105 | 111 | 106 | 106 | 109 | 105 |
| Cc1cc(O)c2c(c1)C(=O)c1cc(O)cc(O)c1C2=O | 102 | 108 | 110 | 115 | 100 | 108 | 98.9 | 99.4 | 106 | 99.4 | 86.7 | 101 | 99.3 | 101 | 101 | 120 | 128 | 111 | 102 | 112 | 120 | 86.5 | 92.7 | 106 | 114 | 117 | 112 | 106 | 106 | 106 | 123 | 103 | 103 |
| CN(C)c1ccc(Nc2nc(N)n(C(=O)c3c(F)cccc3F)n2)cc1 | 105 | 118 | 110 | 92.2 | 111 | 117 | 97.1 | 69 | 43.9 | 64.7 | 56.1 | 108 | 110 | 123 | 96.8 | 118 | 120 | 90.2 | 42.7 | 32.3 | 38 | 48.7 | 102 | 118 | 117 | 76.3 | 142 | 127 | 95.5 | 61.2 | 34.8 | 40.5 | 40.6 |
| COc1cc2ncnc(Nc3cccc(Br)c3)c2cc1OC | 85.1 | 84.7 | 94.3 | 94.7 | 102 | 98 | 114 | 118 | 114 | 103 | 91.5 | 113 | 87.9 | 102 | 131 | 122 | 119 | 113 | 136 | 121 | 110 | 89.9 | 75 | 75.2 | 86 | 97.4 | 110 | 103 | 120 | 110 | 104 | 96.3 | 78.6 |
| C[S+]([O-])c1ccc(-c2nc(-c3ccc(F)cc3)c(-c3ccncc3)[nH]2)cc1 (stereo unspecified) | 83.2 | 84.2 | 91.8 | 84 | 102 | 81.5 | 86.9 | 62 | 40.9 | 4.09 | 2.22 | 103 | 106 | 102 | 105 | 107 | 79.3 | 75.1 | 41 | 21.9 | 3.29 | 2.41 | 92.6 | 99.7 | 89.8 | 97.8 | 98.1 | 77 | 79.2 | 59.4 | 26.1 | 3.71 | 2.23 |
| Cc1cc(Cl)ccc1OCCCC(=O)NO | 105 | 96.7 | 103 | 117 | 130 | 120 | 118 | 101 | 89 | 34 | 12.8 | 107 | 101 | 102 | 122 | 112 | 117 | 115 | 124 | 91.7 | 43.9 | 10.9 | 98.8 | 96.2 | 93.5 | 99.4 | 97.1 | 106 | 105 | 89.5 | 76.5 | 26.7 | 10.2 |
| Cc1ccc(-c2ncn(-c3ccc(Nc4nccc(-c5cccc(N6CCOCC6)c5)n4)cc3)n2)cn1 | 75.3 | 93 | 103 | 94.5 | 70.9 | 65.3 | 4.95 | 3.93 | 3.48 | 3.55 | 6.89 | 90.3 | 98.9 | 101 | 104 | 75.1 | 32.3 | 5.46 | 4.61 | 3.18 | 3.66 | 5.27 | 81.6 | 95.5 | 90.7 | 94.4 | 66.9 | 48 | 5.8 | 4.65 | 4.48 | 3.85 | 5.94 |
| CC(C)(C)NC(=O)[C@H]1CC[C@H]2[C@@H]3CC[C@H]4NC(=O)\C=C/[C@]4(C)[C@H]3CC[C@]12C | 88.1 | 89.3 | 98.7 | 92 | 95.8 | 94.4 | 101 | 88.3 | 102 | 104 | 101 | 91.9 | 92.4 | 104 | 95.5 | 97.3 | 90.2 | 91.5 | 99.7 | 94 | 106 | 90.9 | 95.4 | 87.6 | 91.7 | 94.2 | 104 | 99.8 | 104 | 115 | 111 | 99.2 | 91.2 |
| Cc1cn(CCN2CCN(c3ccccc3-c3cc(C#N)cc(C(=O)NCCCN4CCCC4)c3)CC2)c2ccccc12 | 103 | 103 | 94.9 | 97.1 | 99.9 | 101 | 112 | 102 | 73.2 | 23.8 | 18.3 |  |  |  |  |  |  |  |  |  |  |  | 104 | 116 | 116 | 101 | 117 | 119 | 128 | 113 | 102 | 42 | 27 |
